Assay results reported in patent US5906930A, “Para-nitrobenzyl esterases with enhanced activity in aqueous and nonaqueous media” (California Institute of Technology, priority 1998, dated 1999).
Changes are numbered by the printed parent chain.

Legend:
Assay in all cases: Kinetic assays of purified pNB esterase (ester hydrolysis)
Assay type in all cases: biochemical
Conditions in all cases: 0.1M PIPES pH 7.0, 30° C.
[1] = biological target: T1, Bacillus subtilis para-nitrobenzyl esterase variant 1-1H9 (incl. Y370F), SEQ. ID. NO. 4 (Bacillus subtilis, UniProt P37967, H322R/Y370F)
T1 sequence (P37967 1-489 K23L/S59P/K95Q/N150D/S230A/G242S/K246R/S251A/A291S/H322R/V343A/Y370F/K390E/L463V): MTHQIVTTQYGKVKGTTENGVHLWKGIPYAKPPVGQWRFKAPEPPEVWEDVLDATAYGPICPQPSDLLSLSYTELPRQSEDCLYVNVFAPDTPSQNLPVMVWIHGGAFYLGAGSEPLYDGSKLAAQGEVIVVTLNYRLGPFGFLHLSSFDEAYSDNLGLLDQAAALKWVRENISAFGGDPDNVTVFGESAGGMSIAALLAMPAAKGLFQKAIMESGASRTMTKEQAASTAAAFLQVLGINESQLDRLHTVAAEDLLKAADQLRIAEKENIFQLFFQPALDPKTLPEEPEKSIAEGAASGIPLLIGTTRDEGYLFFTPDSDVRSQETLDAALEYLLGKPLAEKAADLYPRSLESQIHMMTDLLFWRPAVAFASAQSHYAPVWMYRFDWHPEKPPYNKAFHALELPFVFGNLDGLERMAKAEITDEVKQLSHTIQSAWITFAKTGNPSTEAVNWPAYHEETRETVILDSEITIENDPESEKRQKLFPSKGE
Protocol: Bacteria expressing seven pNB esterases, 0-WT (SEQ. ID. NO. 2), 1-1H9, 2-19E10, 3-10C4, 4-38B9, 4-43E7, and 4-54B9, were grown in one liter cultures and the enzymes were purified. These purified enzymes were assayed for their ability to hydrolyze the different ester substrates in the presence of various concentrations of DMF.
The effects on kcat, however, are more prominent: kcat increases more than 9-fold from wild type to 4-54B9 in 15% DMF, while KM decreases by less than a factor of two on LCN-pNB. […] These improvements are obviously the most useful for enzymes intended to be used for transformations in high substrate concentrations.
(§1) Kinetic assays were performed on three substrates: pNPA, LCN-pNP, and p-nitrobenzyl loracarbef nucleus (LCN-pNB). For pNPA and LCN-pNP substrates, final concentrations varying from 0.0625 mM to 16 mM and 0, 15, and 30% DMF in 0.1M PIPES (Sigma), pH 7.0 were combined with equal volumes of enzyme samples. These samples were mixed simultaneously in a 96 well plate and monitored with the 96 well plate reader. The absorbance values were recorded, linearly regressed, and then used for calculating kinetic parameters. For the LCN-pNB substrate, final concentrations varying from 0.0156 mM to 8.0 mM and 0, 15 and 30% DMF in PIPES, pH 7.0 were combined with enzyme samples in a quartz cuvette and were measured in a spectrophotometer at 289 nm. All assays were measured in triplicate.

[2] = biological target: T2, Bacillus subtilis para-nitrobenzyl esterase variant 4-38B9 (3-10C4 substitutions + I60V), SEQ. ID. NO. 10 (Bacillus subtilis, UniProt P37967, H322R/I60V/L144M/M358V/Y370F)
T2 sequence (P37967 1-489 K23L/S59P/I60V/K95Q/L144M/N150D/S230A/G242S/K246R/S251A/A291S/H322R/V343A/M358V/Y370F/K390E/L463V): T1 sequence (P37967 1-489 K23L/S59P/K95Q/N150D/S230A/G242S/K246R/S251A/A291S/H322R/V343A/Y370F/K390E/L463V) with I60V, L144M, M358V
Protocol: (§2) Bacteria expressing seven pNB esterases, 0-WT (SEQ. ID. NO. 2), 1-1H9, 2-19E10, 3-10C4, 4-38B9, 4-43E7, and 4-54B9, were grown in one liter cultures and the enzymes were purified. These purified enzymes were assayed for their ability to hydrolyze the different ester substrates in the presence of various concentrations of DMF. FIGS. 8a, b and c show the specific reaction rates on pNPA as a function of pNPA substrate concentration for this series of evolved variants from the four generations of mutagenesis and screening. […] The wild type enzyme outperforms 1-1H9 in purely aqueous buffer (FIG. 8a). The actual screening, however, was performed in the presence of DMF, and in 15 and 30% DMF, 1-1H9 has higher specific activity towards pNPA than wild type (FIGS. 8b and 8c). Similar trends are seen for the remaining variants assayed on this substrate. […] In 30% DMF, wild type drops still further relative to the pNB esterase variants. Variants 4-38B9 and 4-43E7, presumably by, virtue of having been screened in DMF for four rounds of mutagenesis, are the best performers in 30% DMF.
(§3) DMF dramatically increases KM while also decreasing kcat. For the LCN substrates, the mutations accumulated during directed evolution mitigate the increased KM. The effects on kcat, however, are more prominent: kcat increases more than 9-fold from wild type to 4-54B9 in 15% DMF, while KM decreases by less than a factor of two on LCN-pNB. […] At substrate concentrations […], increased specific activity will result mainly from improvements in kcat. These improvements are obviously the most useful for enzymes intended to be used for transformations in high substrate concentrations.
as §1

[3] = biological target: T3, Bacillus subtilis para-nitrobenzyl esterase variant 3-10C4 (2-19E10 substitutions + L144M), SEQ. ID. NO. 8 (Bacillus subtilis, UniProt P37967, H322R/L144M/M358V/Y370F)
T3 sequence (P37967 1-489 K23L/S59P/K95Q/L144M/N150D/S230A/G242S/K246R/S251A/A291S/H322R/V343A/M358V/Y370F/K390E/L463V): T1 sequence (P37967 1-489 K23L/S59P/K95Q/N150D/S230A/G242S/K246R/S251A/A291S/H322R/V343A/Y370F/K390E/L463V) with L144M, M358V
Protocol: as §2, §3, §1

[4] = biological target: T4, Bacillus subtilis para-nitrobenzyl esterase variant 2-19E10 (1-1H9 substitutions + M358V), SEQ. ID. NO. 6 (Bacillus subtilis, UniProt P37967, H322R/M358V/Y370F); set-up: unit not given beside the values
T4 sequence (P37967 1-489 K23L/S59P/K95Q/N150D/S230A/G242S/K246R/S251A/A291S/H322R/V343A/M358V/Y370F/K390E/L463V): T1 sequence (P37967 1-489 K23L/S59P/K95Q/N150D/S230A/G242S/K246R/S251A/A291S/H322R/V343A/Y370F/K390E/L463V) with M358V
Protocol: as §2, §3, §1

[5] = biological target: T5, Bacillus subtilis para-nitrobenzyl esterase variant 4-43E7 (3-10C4 substitutions + L334V and one further substitution), SEQ. ID. NO. 12 (Bacillus subtilis, UniProt P37967, H322R/L144M/L334V/M358V/S94G/Y370F); set-up: unit not given beside the values
T5 sequence (P37967 1-489 K23L/S59P/S94G/K95Q/L144M/N150D/S230A/G242S/K246R/S251A/A291S/H322R/L334V/V343A/M358V/Y370F/K390E/L463V): T1 sequence (P37967 1-489 K23L/S59P/K95Q/N150D/S230A/G242S/K246R/S251A/A291S/H322R/V343A/Y370F/K390E/L463V) with S94G, L144M, L334V, M358V
Protocol: as §2, §3, §1

[6] = biological target: T6, Bacillus subtilis para-nitrobenzyl esterase variant 4-54B9 (3-10C4 substitutions + L334S and one further substitution), SEQ. ID. NO. 14 (Bacillus subtilis, UniProt P37967, H322R/K267R/L144M/L334S/M358V/Y370F); set-up: unit not given beside the values
T6 sequence (P37967 1-489 K23L/S59P/K95Q/L144M/N150D/S230A/G242S/K246R/S251A/K267R/A291S/H322R/L334S/V343A/M358V/Y370F/K390E/L463V): T1 sequence (P37967 1-489 K23L/S59P/K95Q/N150D/S230A/G242S/K246R/S251A/A291S/H322R/V343A/Y370F/K390E/L463V) with L144M, K267R, L334S, M358V
Protocol: as §2, §3, §1

[7] = biological target: T7, Bacillus subtilis para-nitrobenzyl esterase (pNB esterase), wild type 0-WT, SEQ. ID. NO. 2 (Bacillus subtilis, UniProt P37967); set-up: unit not given beside the values
T7 sequence (P37967 1-489 K23L/S59P/K95Q/N150D/S230A/G242S/K246R/S251A/A291S/V343A/K390E/L463V): T1 sequence (P37967 1-489 K23L/S59P/K95Q/N150D/S230A/G242S/K246R/S251A/A291S/H322R/V343A/Y370F/K390E/L463V) with R322H, F370Y
Protocol: as §2, §3, §1

[8] = substrate p-nitrobenzyl loracarbef nucleus, 0% DMF
[9] = substrate p-nitrobenzyl loracarbef nucleus, 15% DMF
[10] = substrate p-nitrophenyl loracarbef nucleus, 0% DMF
[11] = substrate p-nitrophenyl loracarbef nucleus, 15% DMF
[12] = substrate p-nitrophenyl loracarbef nucleus, 30% DMF

Q: For `NC1C(=O)N2C(C(=O)OCc3ccc([N+](=O)[O-])cc3)=C(Cl)CCC12` (centres unmarked) [p-nitrobenzyl loracarbef nucleus], which kcat [1, 8] is on record?
A: Its kcat is 1.94.

Q: What about the kcat [1, 9] of the same molecule?
A: Its kcat is 0.69.

Q: And the kcat [2, 8]?
A: Its kcat is 8.51.

Q: And the kcat [2, 9]?
A: Its kcat is 1.89.

Q: What about the kcat [3, 8] of the same molecule?
A: Its kcat is 6.53.

Q: And the kcat [3, 9]?
A: Its kcat is 1.62.

Q: And the kcat [4, 8]?
A: The kcat was 4.59.

Q: And the kcat [4, 9]?
A: Its kcat is 1.81.

Q: What about the kcat [5, 8] of the same molecule?
A: Its kcat is 9.13.

Q: And the kcat [5, 9]?
A: The kcat was 3.02.

Q: What about the kcat [6, 8] of the same molecule?
A: The kcat was 18.96.

Q: What about the kcat [6, 9] of the same molecule?
A: The kcat was 6.84.

Q: What about the kcat [7, 8] of the same molecule?
A: Its kcat is 1.64.

Q: What about the kcat [7, 9] of the same molecule?
A: Its kcat is 0.54.

Q: Which kcat [1, 10] does the source give for `NC1C(=O)N2C(C(=O)Oc3ccc([N+](=O)[O-])cc3)=C(Cl)CCC12` (centres unmarked) [p-nitrophenyl loracarbef nucleus] here?
A: The kcat was 0.08.

Q: What about the kcat [1, 11] of the same molecule?
A: The kcat was 0.07.

Q: And the kcat [1, 12]?
A: The kcat was 0.021.

Q: And the kcat [2, 10]?
A: Its kcat is 0.39.

Q: What about the kcat [2, 11] of the same molecule?
A: Its kcat is 0.25.

Q: And the kcat [2, 12]?
A: The kcat was 0.067.

Q: And the kcat [3, 10]?
A: Its kcat is 0.35.

Q: And the kcat [3, 11]?
A: The kcat was 0.21.

Q: And the kcat [3, 12]?
A: Its kcat is 0.044.

Q: What about the kcat [4, 10] of the same molecule?
A: Its kcat is 0.25.

Q: What about the kcat [4, 11] of the same molecule?
A: Its kcat is 0.12.

Q: And the kcat [4, 12]?
A: Its kcat is 0.023.

Q: And the kcat [5, 10]?
A: The kcat was 0.67.

Q: And the kcat [5, 11]?
A: The kcat was 0.40.

Q: And the kcat [5, 12]?
A: The kcat was 0.094.

Q: What about the kcat [6, 10] of the same molecule?
A: Its kcat is 1.44.

Q: And the kcat [6, 11]?
A: The kcat was 0.93.

Q: What about the kcat [6, 12] of the same molecule?
A: Its kcat is 0.141.

Q: And the kcat [7, 10]?
A: Its kcat is 0.14.

Q: And the kcat [7, 11]?
A: The kcat was 0.10.

Q: What about the kcat [7, 12] of the same molecule?
A: Its kcat is 0.024.
